From ChEMBL document CHEMBL1201862, “PubChem BioAssay data set” (2004)
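Results reflect a 48-hour exposure of cells in 96-well plates to compound at five concentrations. GI50 = concentration required for 50% inhibition of growth.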 Activity calls are given as the source filed them. No stated cut-off is given here; in the data, active = GI50 up to about 1.1 µM and inactive = higher.

Assays:
Assay in all cases: NCI-60 cell line screen, 48 h
[1] = system: NCI-H522
[2] = system: CAKI-1
[3] = system: NCI-H23
[4] = system: IGROV-1
[5] = system: UACC-257
[6] = system: SW-620
[7] = system: UACC-62
[8] = system: A498
[9] = system: MDA-MB-231
[10] = system: MDA-MB-435
[11] = system: SK-MEL-5
[12] = system: A549
[13] = system: Hs-578T
[14] = system: SNB-75
[15] = system: HCT-15
[16] = system: NCI/ADR-RES
[17] = system: LOX IMVI
[18] = system: MOLT-4
[19] = system: OVCAR-3
[20] = system: OVCAR-5
[21] = system: EKVX
[22] = system: MCF7
[23] = system: NCI-H226
[24] = system: OVCAR-4
[25] = system: M14
[26] = system: U-251
[27] = system: HT-29
[28] = system: MDA-N
[29] = system: COLO 205
[30] = system: SN12C
[31] = system: HL-60
[32] = system: T47D
[33] = system: PC-3
[34] = system: SNB-19
[35] = system: SF-539
[36] = system: UO-31
[37] = system: SF-268
[38] = system: SK-OV-3
[39] = system: RPMI-8226
[40] = system: CCRF-CEM
[41] = system: BT-549
[42] = system: TK-10
[43] = system: OVCAR-8
[44] = system: K562
[45] = system: 786-0
[46] = system: SF-295
[47] = system: KM12
[48] = system: HCC 2998
[49] = system: DU-145
[50] = system: SK-MEL-28
[51] = system: HOP-92
[52] = system: ACHN
[53] = system: HCT-116
[54] = system: SK-MEL-2
[55] = system: NCI-H460
[56] = system: SR
[57] = system: HOP-62

**Q.** With O=c1cccc(C2CC(CO)C3CCCCN3C2)[nH]1 (stereo not drawn) as the compound, how does the GI50 [1] read?
**A.** > 100 µM (inactive)

**Q.** What about the GI50 [2] of the same compound?
**A.** > 100 µM (inactive)

**Q.** And the GI50 [3]?
**A.** > 100 µM (inactive)

**Q.** What about the GI50 [4] of the same compound?
**A.** > 100 µM (inactive)

**Q.** What about the GI50 [5] of the same compound?
**A.** > 100 µM (inactive)

**Q.** What about the GI50 [6] of the same compound?
**A.** > 100 µM (inactive)

**Q.** What about the GI50 [7] of the same compound?
**A.** > 100 µM (inactive)

**Q.** And the GI50 [8]?
**A.** > 100 µM (inactive)

**Q.** What about the GI50 [9] of the same compound?
**A.** > 100 µM (inactive)

**Q.** What about the GI50 [10] of the same compound?
**A.** > 100 µM (inactive)

**Q.** What about the GI50 [11] of the same compound?
**A.** > 100 µM (inactive)

**Q.** And the GI50 [12]?
**A.** > 100 µM (inactive)

**Q.** And the GI50 [13]?
**A.** > 100 µM (inactive)

**Q.** What about the GI50 [14] of the same compound?
**A.** 86.9 µM (inactive)

**Q.** And the GI50 [15]?
**A.** > 100 µM

**Q.** What about the GI50 [16] of the same compound?
**A.** > 100 µM (inactive)

**Q.** And the GI50 [17]?
**A.** > 100 µM (inactive)

**Q.** And the GI50 [18]?
**A.** > 100 µM (inactive)

**Q.** And the GI50 [19]?
**A.** > 100 µM (inactive)

**Q.** And the GI50 [20]?
**A.** > 100 µM (inactive)

**Q.** What about the GI50 [21] of the same compound?
**A.** > 100 µM (inactive)

**Q.** And the GI50 [22]?
**A.** > 100 µM (inactive)

**Q.** What about the GI50 [23] of the same compound?
**A.** > 100 µM (inactive)

**Q.** What about the GI50 [24] of the same compound?
**A.** > 100 µM (inactive)

**Q.** What about the GI50 [25] of the same compound?
**A.** > 100 µM (inactive)

**Q.** What about the GI50 [26] of the same compound?
**A.** > 100 µM (inactive)

**Q.** What about the GI50 [27] of the same compound?
**A.** > 100 µM (inactive)

**Q.** And the GI50 [28]?
**A.** > 100 µM (inactive)

**Q.** And the GI50 [29]?
**A.** > 100 µM (inactive)

**Q.** And the GI50 [30]?
**A.** > 100 µM (inactive)

**Q.** What about the GI50 [31] of the same compound?
**A.** > 100 µM (inactive)

**Q.** And the GI50 [32]?
**A.** > 100 µM (inactive)

**Q.** And the GI50 [33]?
**A.** > 100 µM (inactive)

**Q.** What about the GI50 [34] of the same compound?
**A.** > 100 µM (inactive)

**Q.** And the GI50 [35]?
**A.** > 100 µM (inactive)

**Q.** And the GI50 [36]?
**A.** > 100 µM (inactive)

**Q.** And the GI50 [37]?
**A.** > 100 µM (inactive)

**Q.** And the GI50 [38]?
**A.** > 100 µM (inactive)

**Q.** And the GI50 [39]?
**A.** > 100 µM (inactive)

**Q.** And the GI50 [40]?
**A.** > 100 µM (inactive)

**Q.** And the GI50 [41]?
**A.** > 100 µM (inactive)

**Q.** And the GI50 [42]?
**A.** > 100 µM (inactive)

**Q.** And the GI50 [43]?
**A.** > 100 µM (inactive)

**Q.** What about the GI50 [44] of the same compound?
**A.** > 100 µM (inactive)

**Q.** What about the GI50 [45] of the same compound?
**A.** > 100 µM (inactive)

**Q.** And the GI50 [46]?
**A.** > 100 µM (inactive)

**Q.** And the GI50 [47]?
**A.** > 100 µM (inactive)

**Q.** What about the GI50 [48] of the same compound?
**A.** > 100 µM (inactive)

**Q.** And the GI50 [49]?
**A.** > 100 µM (inactive)

**Q.** And the GI50 [50]?
**A.** > 100 µM (inactive)

**Q.** And the GI50 [51]?
**A.** > 100 µM (inactive)

**Q.** What about the GI50 [52] of the same compound?
**A.** > 100 µM (inactive)

**Q.** And the GI50 [53]?
**A.** > 100 µM (inactive)

**Q.** What about the GI50 [54] of the same compound?
**A.** > 100 µM (inactive)

**Q.** What about the GI50 [55] of the same compound?
**A.** > 100 µM (inactive)

**Q.** How did the GI50 [1] turn out when N#Cc1nn(C(N)=O)c(N)c1C#N was run?
**A.** > 100 µM (inactive)

**Q.** And the GI50 [2]?
**A.** > 100 µM (inactive)

**Q.** What about the GI50 [56] of the same compound?
**A.** > 100 µM (inactive)

**Q.** And the GI50 [3]?
**A.** > 100 µM (inactive)

**Q.** What about the GI50 [4] of the same compound?
**A.** > 100 µM (inactive)

**Q.** What about the GI50 [5] of the same compound?
**A.** > 100 µM (inactive)

**Q.** And the GI50 [6]?
**A.** > 100 µM (inactive)

**Q.** What about the GI50 [7] of the same compound?
**A.** > 100 µM (inactive)

**Q.** And the GI50 [8]?
**A.** > 100 µM (inactive)

**Q.** What about the GI50 [9] of the same compound?
**A.** > 100 µM (inactive)

**Q.** And the GI50 [11]?
**A.** > 100 µM (inactive)

**Q.** And the GI50 [12]?
**A.** > 100 µM (inactive)

**Q.** And the GI50 [13]?
**A.** > 100 µM (inactive)

**Q.** And the GI50 [14]?
**A.** > 100 µM (inactive)

**Q.** And the GI50 [15]?
**A.** > 100 µM

**Q.** What about the GI50 [16] of the same compound?
**A.** > 100 µM (inactive)

**Q.** And the GI50 [18]?
**A.** > 100 µM (inactive)

**Q.** And the GI50 [19]?
**A.** > 100 µM (inactive)

**Q.** What about the GI50 [20] of the same compound?
**A.** > 100 µM (inactive)

**Q.** What about the GI50 [21] of the same compound?
**A.** > 100 µM (inactive)

**Q.** And the GI50 [22]?
**A.** > 100 µM (inactive)

**Q.** What about the GI50 [23] of the same compound?
**A.** > 100 µM (inactive)

**Q.** And the GI50 [24]?
**A.** > 100 µM (inactive)

**Q.** And the GI50 [25]?
**A.** > 100 µM (inactive)

**Q.** What about the GI50 [26] of the same compound?
**A.** > 100 µM (inactive)

**Q.** What about the GI50 [27] of the same compound?
**A.** > 100 µM (inactive)

**Q.** And the GI50 [28]?
**A.** > 100 µM (inactive)

**Q.** And the GI50 [29]?
**A.** > 100 µM (inactive)

**Q.** What about the GI50 [30] of the same compound?
**A.** > 100 µM (inactive)

**Q.** What about the GI50 [31] of the same compound?
**A.** > 100 µM (inactive)

**Q.** And the GI50 [32]?
**A.** > 100 µM (inactive)

**Q.** What about the GI50 [33] of the same compound?
**A.** > 100 µM (inactive)

**Q.** And the GI50 [34]?
**A.** > 100 µM (inactive)

**Q.** And the GI50 [35]?
**A.** > 100 µM (inactive)

**Q.** What about the GI50 [36] of the same compound?
**A.** > 100 µM (inactive)

**Q.** What about the GI50 [37] of the same compound?
**A.** > 100 µM (inactive)

**Q.** And the GI50 [57]?
**A.** > 100 µM (inactive)

**Q.** What about the GI50 [38] of the same compound?
**A.** > 100 µM (inactive)

**Q.** What about the GI50 [40] of the same compound?
**A.** > 100 µM (inactive)

**Q.** And the GI50 [41]?
**A.** > 100 µM (inactive)

**Q.** And the GI50 [42]?
**A.** > 100 µM (inactive)

**Q.** And the GI50 [43]?
**A.** > 100 µM (inactive)

**Q.** What about the GI50 [44] of the same compound?
**A.** > 100 µM (inactive)

**Q.** And the GI50 [45]?
**A.** > 100 µM (inactive)

**Q.** And the GI50 [46]?
**A.** > 100 µM (inactive)

**Q.** What about the GI50 [47] of the same compound?
**A.** > 100 µM (inactive)

**Q.** What about the GI50 [48] of the same compound?
**A.** > 100 µM (inactive)

**Q.** What about the GI50 [49] of the same compound?
**A.** > 100 µM (inactive)

**Q.** What about the GI50 [50] of the same compound?
**A.** > 100 µM (inactive)

**Q.** And the GI50 [52]?
**A.** > 100 µM (inactive)

**Q.** What about the GI50 [53] of the same compound?
**A.** > 100 µM (inactive)

**Q.** And the GI50 [54]?
**A.** > 100 µM (inactive)

**Q.** What about the GI50 [55] of the same compound?
**A.** > 100 µM (inactive)
